Laboratory results reported in patent US20170233637A1, “METHODS FOR INHIBITING METAL CORROSION” (OHIO UNIVERSITY, priority 2014, published 2017).
Values after ≈ are worked out from the molar mass of the structure shown. Values joined by “and” are separate entries in the source; they are usually repeats but may differ in a detail not shown here. Equal entries are not always repeated. Where two headings read alike, the source gives them in different places.

Legend:
[1] = cited from earlier work; for Calculated vapor pressure: at 200° C., Yaws and Yang 1989; for Pvapor (vapor pressure): at 25° C.
[2] = carbon dioxide saturated environment; cited from earlier work
[3] = VCI screening in bulk solution (BLC rate by linear polarization resistance, OCP, solution pH); conditions: for inhibition properties in the tested water phase (VCI screening in bulk solution): 400 ppmv, 1 wt % NaCl
Protocol: Other measurements of the effectiveness of the VCI composition to inhibit corrosion may be derived from Open Circuit Potential (OCP) and Linear Polarization Resistance (Rp) experiments. In the volatile thiol screening test, a potentiostat was used to measure the Rp and the OCP of the ferrous metal sample. Corrosion rate in the water phase (BLC rate) is proportional to the corrosion current density (icorr), which was then calculated by using a B constant value of 0.026 V/decade (icorr=B/Rp/S in which S is surface area of the sample).
A three electrode system was used in which an X65 rotating cylinder electrode (1000 RPM) was the working electrode 12, a Pt wire was used as counter electrode 14, and Ag/AgCl as the reference electrode 16. A pH probe 18 was used to measure the pH of the solution before and after adding the VCI candidates. The experiments were performed at 25° C. and 1 bar total pressure (pCO2=0.96 bar).
In the VCI screening test, a potentiostat was used to measure the polarization resistance (Rp) of the X65 sample. Corrosion rate in the water phase (BLC rate) is proportional to the corrosion current density (icorr) which was then calculated by using a B constant value of 0.026 V/decade (icorr=B/Rp/S in which S is surface area of the sample).
A baseline test was performed in the absence of the VCI candidate compound. […] Dibutyl sulfide was used to compare the sulfide functional group versus the thiol functional group.
For the VCI screening tests, a 1 wt % NaCl solution was prepared and purged with CO2 for 2 hours at 25° C. before injecting the VCI candidate. […] After that the Open Circuit Potential (OCP) and Linear Polarization Resistance (LPR) were measured every 10 minutes during an exposure time of 3-4 hours. The pH of the solution was measured before and after adding the VCI candidate. Electrolyte resistance (ER) was measured by Electrochemical Impedance Spectroscopy (EIS).

[4] = Efficacy test of VCI candidates for top of the line corrosion (weight loss, ASTM G1; surface analysis); conditions: for surface of the X65 TLC specimen: 100 and 400 ppmv in the bulk, after 2 days; for TLC rate (weight loss): 2 days; for TLC rate (weight loss) / TLC rate: uninhibited 1.06 mm/y
Protocol: The temperatures of the bottom solution and gas phases were controlled by a heater, while temperature of the specimen at the top was controlled by cooling water. Through coil 20, a condenser 22 was used to prevent water and VCI vapor loss.
In the VCI efficacy test, corrosion rate of the specimen at the top (TLC rate) was measured by weight loss following the ASTM G1 standard. Sample surface was characterized by Scanning Electron Microscopy (SEM)/Energy Dispersive X-ray Spectroscopy (EDS).
1-hexanethiol, 1-decanethiol and 1-dodecanethiol were chosen based on the results in the VCI screening test, data from which will be shown below. In addition, the effect of acetic acid and MEG on the inhibition performance of the best VCI candidate was also taken into account.
For the efficacy tests of VCI candidates for TLC, 1 wt % NaCl was also prepared and purged with CO2 for 2 hours. In order to have a gas temperature of 65° C., the bottom solution was heated to 77° C. After that the selected concentration of the VCI candidates (Table 3) was added into the bulk solution. A weight loss specimen 24, after being ground (with up to 600 grit abrasive paper), was flush-mounted at the top of the experimental setup, controlling its temperature at 32° C. using cooling water. The weight loss sample and ER probe were added 0.1 hour after addition of the VCI candidate. The weight loss samples were withdrawn after 48 hours for surface analysis and weight loss measurement.
FIG. 15 indicates the conditions for the TLC tests. The temperatures at the bottom, in the vapor phase, and at the top were 77° C., 65° C., and 32° C. respectively. The experiment was performed in the CO2 environment (total pressure=1 atm).

[5] = Solubility in water of VCI candidates; conditions: at 25° C.; converted to ppm by volume using density value
[6] = cited from earlier work; for Solubility: at 77° C.; for Water solubility: temperature not given
[7] = 400 ppmv VCI added before electrode insertion, CO2 saturated 1 wt % NaCl, 25° C., baseline 2.3 mm/y
[8] = at 25° C., data from www.lookchem.com

SMILES	Calculated vapor pressure [1] [mmHg]	inhibition properties in the tested water phase (VCI screening in bulk solution) [3]	Pvapor (vapor pressure) [1]	Solubility limit [6, 8] [mg/L]	Solubility [6] [ppmV]	Water solubility [6]	other results
CCCCCCCCCCCCCCCS [C15]	26.5	–	–	–	–	–	–
CCCCCCCCCCCCCCCCCS [C17]	10.7	–	–	–	–	–	–
O=C(O)CS [Thioglycolic acid]	–	–	–	–	–	–	effectiveness at inhibiting corrosion [2]: only partially effective
CCCCCCS [1-hexanethiol]	–	had inhibition properties	4.5 mmHg	177.1 (≈ 1500 µM)	1013.0	about 177.1 mg/L	BLC rate [3, 7]: 0.01 mm/y; surface of the X65 TLC specimen [4]: partially protected; TLC rate (weight loss) ([4]; 100 ppmV at the bottom): 0.11 mm/y; TLC rate, times lower than the baseline test ([4]; 100 ppmv and 400 ppmv in the bulk): 10 times; TLC rate (weight loss) ([4]; 400 ppmV at the bottom): 0.13 mm/y; localized corrosion rate ([4]; 400 ppmv in the bulk, profilometry after removing corrosion product, 2 day experiment): 1.46 mm/y; depth of the deepest pit on the surface ([4]; 400 ppmv in the bulk, profilometry, 2 day experiment): about 8 micrometers; Solubility [5]: 212.35 ppmV and 212.4 ppmV
CCCCSCCCC [Dibutyl sulfide, reference compound]	–	did not	–	39.4 (≈ 269 µM)	–	–	BLC rate [3, 7]: did not significantly change
CCCCCCCCCCCCCCCCS [C16]	16.7	–	–	–	–	–	–
CCCCCCCCCCS [1-decanethiol]	–	had inhibition properties	0.06 mmHg	2.14 (≈ 12.3 µM)	24.8	~2.14 µg/mL	BLC rate [3, 7]: 0.01 mm/y; BLC rate ([3]; 400 ppmv injected after electrode insertion (X65 pre-corroded almost one hour), decreased from 2.4 mm/y): 0.05 mm/y; TLC rate ([4]; 1 ppmv at the bottom): 0.21 mm/y; TLC rate ([4]; 10 ppmv at the bottom): 0.12 mm/y; surface of the X65 TLC specimen [4]: fully protected; protection of the X65 specimen in the presence of acetic acid ([4]; 100 ppmv VCI with 500 ppmv acetic acid): effective in fully protecting; TLC rate (weight loss) ([4]; 400 ppmV at the bottom): 0.02 mm/y; weight loss for the calculation of corrosion rate ([4]; above the solubility limit (100 ppmv and 400 ppmv)): no measurable weight loss; average vapor phase corrosion rate ([4]; with or without 50 wt. % MEG, 400 ppmV per test matrix): around 0.04 mm/y; Solubility limit ([6]; at 32° C.): 3.63 ppmv
CCCCCCCCCCCCCCCCCCS [C18]	6.79	–	–	–	–	–	–
OCCCCCCCCCCCS [11-Mercapto-1-undecanol]	–	–	–	–	–	about 10.3 mg/L	–
CCCCCCCCCCCCS [1-dodecanethiol]	–	had inhibition properties	0.007 mmHg	0.18 (≈ 0.889 µM)	3	~0.225 µg/mL	TLC rate (weight loss) ([4]; 400 ppmV at the bottom): 0.02 mm/y; Solubility [5]: 0.22 ppmV
O=C(O)CCCCCCCCCCS [11-MUA, 11-mercaptoundecanoic acid]	–	–	3.7 × 10^−5 mmHg	–	89	about 13.8 mg/L	TLC rate (weight loss) ([4]; 100 ppmV at the bottom): 0.02 mm/y
